{
  "source": "patent US20070207223A1",
  "about": "“Means for improving cardiovascular health” (priority 2006, published 2007)",
  "key": {"[1]": {"conditions": "regular dietary intake; cited from earlier work"}, "[2]": {"assay": "RBC omega-3 fatty acid content, dietary study in beagle dogs", "type": "in vivo", "method": "(§1) The test article, SDA, was administered in the diet once daily, 7 days per week, for up to 90 days to three groups (Groups 1-3) of male beagle dogs. The reference article, eicosapentaenoic acid (EPA), was administered to Group 4 on the same dosing regimen. Both SDA and EPA were supplied as ethyl esters. The control article, food grade high oleic sunflower oil (SFO), was administered to Group 5 on the same dosing regimen. SFO was also added to food of groups 1 through 4 so that all animals received a similar volume of oil per kg body wt. A dietary supplement, vitamin E, was added to all diets. Dosage levels were 21.4, 64.2 and 192.9 mg/kg/day SDA, 42.9 mg/kg/day EPA and were calculated for each animal based on body weight for Groups 1, 2, 3 and 4, respectively. Each group consisted of 15 males. Five animals/group were scheduled for each interim necropsy (study weeks 4 and 8) and the primary necropsy at the end of the 12-week treatment period. In addition, five animals were euthanized prior to randomization and test article administration to establish baseline levels of fatty acids (pretest necropsy).\n(§2) The animals were observed twice daily for mortality and moribundity. Clinical examinations were performed daily, and detailed physical examinations were performed weekly. Individual body weights were recorded weekly. Food consumption was recorded daily and reported weekly. Blood samples for analysis of fatty acids were collected from five dogs scheduled for the pretest necropsy and from all surviving dogs during study weeks 2, 4, 8 and 12. All animals were euthanized, and in addition to liver and kidney sections, two samples of heart tissue were collected, one set was analyzed for fatty acid analysis and the other sample was retained for microscopic analysis at the scheduled necropsies. Sections from the heart, liver and kidney were examined microscopically from five animals during pretest and from 5 animals/group (Groups 3-5 only) at the study week 12 necropsy.\nBlood samples were collected from the 5 dogs selected for the pretest necropsy and from all surviving dogs at study weeks 2, 4, 8 and 12. The samples were collected from the dog's jugular vein into tubes containing EDTA prior to the feeding/dosing regimen. The red blood cells (RBC) were separated from the plasma by centrifugation at 1500× for approximately 20 minutes at 4° C. The plasma was transferred to polypropylene tubes and stored at approximately −70° C. for future analysis. The buffy coat was removed from the packed RBCs, and the RBCs were divided approximately equally into two tubes.\n(§3) Tissue preparation, lipid extraction and analysis were conducted according to a conventional protocol. Briefly, heart tissues were first lyophilized overnight, and then pulverized by grinding between two ground glass slides. The ground tissue was suspended in saline and subjected to 10-15 seconds of sonication. Lipids were extracted with methanol and methylene chloride, and the solvent evaporated under nitrogen. Thawed RBCs were extracted with isopropanol and hexane. After centrifugation of the stroma, the solvent was transferred and evaporated under nitrogen. Phospholipids extracted from heart and RBC samples were methylated with BF3, at 100° C. for 10 minutes. These conditions transmethylate glycerophospholipid FAs but not sphingolipid FAs. After heating, all samples were extracted with hexane and water. The hexane layer was removed, dried under nitrogen, and the FA methyl esters reconstituted in hexane for analysis by flame ionization gas chromatography. FAs were identified by comparison with known standards, and FA compositions were reported as weight percent of total FA."}, "[3]": {"assay": "Heart tissue omega-3 fatty acid content, dietary study in beagle dogs", "type": "in vivo", "method": "as §1, §2, §3\nAnimals were euthanized by an intravenous injection of sodium pentobarbital followed by exsanguinations. Two samples of approximately 200 mg of heart tissue from the left ventricle were collected, rinsed in chilled saline, wrapped in aluminum foil, flash frozen in liquid nitrogen, and stored at approximately −70° C. The samples were analyzed for pathologic abnormalities."}, "[4]": {"conditions": "dog, in vivo", "method": "as §1, with “Five animals/group were scheduled for each interim necropsy (study weeks 4 and 8) and the primary necropsy at the end of the 12-week treatment period. In addition, five animals were euthanized prior to randomization and test article administration to establish baseline levels of fatty acids (pretest necropsy).” left out\nThe animals were observed twice daily for mortality and moribundity. […] Individual body weights were recorded weekly. Food consumption was recorded daily and reported weekly. […] All animals were euthanized, and in addition to liver and kidney sections, two samples of heart tissue were collected, one set was analyzed for fatty acid analysis and the other sample was retained for microscopic analysis at the scheduled necropsies. […]\nAnimals were euthanized by an intravenous injection of sodium pentobarbital followed by exsanguinations. […] The samples were analyzed for pathologic abnormalities. […]"}, "[5]": {"conditions": "dietary supplementation, human diet; phospholipid fractions; cited from earlier work"}},
  "note": "“Also recorded” adds a separate entry of the source.",
  "data": [
    {"compound": "CC/C=C\\C/C=C\\C/C=C\\CCCCCCCC(=O)O", "note": "[ALA, α-linolenic acid]", "values": [
      {"measurement": "Tissue concentrations of EPA and DHA", "setting": "[1]", "value": "proven ineffective in raising the tissue concentrations of EPA and DHA"}
    ]},
    {"compound": "CC/C=C\\C/C=C\\C/C=C\\C/C=C\\C/C=C\\CCCC(=O)O", "note": "[EPA, eicosapentaenoic acid, reference compound]", "values": [
      {"measurement": "RBC omega-3 fatty acid content relative to SFO-treated dogs (negative control)", "setting": "[2]; 42.9 mg/kg/day EPA in diet, between study weeks 2 and 12", "value": "3-10 fold"},
      {"measurement": "Heart tissue omega-3 fatty acid content relative to sunflower oil-treated dogs (negative control)", "setting": "[3]; 42.9 mg/kg/day EPA in diet, between study weeks 4 and 12", "value": "3-5 fold"}
    ]},
    {"compound": "CC/C=C\\C/C=C\\C/C=C\\C/C=C\\CCCCC(=O)O", "note": "[SDA, Stearidonic acid]", "values": [
      {"measurement": "Microscopic changes to heart, liver and kidney tissues", "setting": "[4]", "value": "did not cause any significant microscopic changes"},
      {"measurement": "Microscopic findings (heart, liver, kidney)", "setting": "[4]", "value": "no microscopic findings attributed to test article administration"},
      {"measurement": "Concentrations of EPA and DPA in erythrocytes and plasma", "setting": "[5]", "value": "increase the concentrations of EPA and DPA; also recorded: effectively converted into EPA and DPA"},
      {"measurement": "Total omega-3 fatty acid content (RBC) over pretreatment levels", "setting": "[2]; 21.4 mg/kg/day SDA, as early as study week 2", "value": "overall increase"},
      {"measurement": "Time of peak of total omega-3 fatty acid content (RBC)", "setting": "[2]; 21.4 mg/kg/day SDA, decreasing thereafter", "value": "approximately 4 weeks"},
      {"measurement": "Total omega-3 fatty acid content (RBC) over pretreatment", "setting": "[2]; 192.9 mg/kg/day SDA (Group 3), elevated from study week 2 through 12 weeks", "value": "approximately 2 fold"},
      {"measurement": "Overall increase in omega-3 fatty acid content (RBC) over time compared with the EPA group", "setting": "[2]; 192.9 mg/kg/day SDA vs 42.9 mg/kg/day EPA, slightly lower", "value": "comparable to the increase seen in the 42.9 mg/kg/day EPA group"},
      {"measurement": "Omega-3 fatty acid content in red blood cells (RBC)", "setting": "[2]; SDA 21.4, 64.2 and 192.9 mg/kg/day in diet, study weeks 2, 4, 8 and 12", "value": "increased in a dose-dependent manner"},
      {"measurement": "Heart omega-3 fatty acid content over pretreatment levels", "setting": "[3]; 21.4 mg/kg/day SDA, study week 4", "value": "negligible increase"},
      {"measurement": "Heart omega-3 fatty acid content, peak over pretreatment levels", "setting": "[3]; 21.4 mg/kg/day SDA, study week 8", "value": "approximately 1.5 fold"},
      {"measurement": "Heart omega-3 fatty acid content over pretreatment levels", "setting": "[3]; 192.9 mg/kg/day SDA, study week 12", "value": "approximately 3 fold"},
      {"measurement": "Omega-3 fatty acid content in the heart tissue", "setting": "[3]; SDA 21.4, 64.2 and 192.9 mg/kg/day in diet, study weeks 4, 8 and 12", "value": "increased in a dose-dependent manner"},
      {"measurement": "Conversion into EPA and DPA and incorporation into cardiac and red blood cell membranes", "setting": "[3]; SDA via the diet daily for 12 consecutive weeks, male beagle dogs", "value": "effectively converted into EPA and DPA"}
    ]}
  ]
}
